Values after ≈ are worked out from the molar mass of the structure shown. Values joined by “and” are separate entries in the source; they are usually repeats but may differ in a detail not shown here. Equal values may be shown once. Read-outs that look alike come from different tables or passages of the source.
Experiments:
CDK1/cyclinB = CDK1/cyclinB (Homo sapiens, UniProt P06493); experiment: Kinase counter-screen, Ki; format: biochemical; conditions: apparent Ki
Description: (§1) The ATP concentrations were approximately equal to the Km in all assays.

CDK5/p35 = CDK5/p35 (Homo sapiens, UniProt Q00535); experiment: Kinase counter-screen, Ki; format: biochemical; conditions: apparent Ki
CDK5/p35, sequence (Q00535 whole entry, species assumed): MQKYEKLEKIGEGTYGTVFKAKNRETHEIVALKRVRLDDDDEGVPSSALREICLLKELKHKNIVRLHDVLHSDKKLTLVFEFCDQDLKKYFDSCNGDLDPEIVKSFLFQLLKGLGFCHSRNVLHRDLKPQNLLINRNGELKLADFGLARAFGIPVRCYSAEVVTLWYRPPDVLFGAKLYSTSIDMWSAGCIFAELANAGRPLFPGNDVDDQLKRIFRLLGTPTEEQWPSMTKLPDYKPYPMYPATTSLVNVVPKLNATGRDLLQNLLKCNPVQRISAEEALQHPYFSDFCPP
CDK5/p35, sequence (Q15078 whole entry partner, species assumed): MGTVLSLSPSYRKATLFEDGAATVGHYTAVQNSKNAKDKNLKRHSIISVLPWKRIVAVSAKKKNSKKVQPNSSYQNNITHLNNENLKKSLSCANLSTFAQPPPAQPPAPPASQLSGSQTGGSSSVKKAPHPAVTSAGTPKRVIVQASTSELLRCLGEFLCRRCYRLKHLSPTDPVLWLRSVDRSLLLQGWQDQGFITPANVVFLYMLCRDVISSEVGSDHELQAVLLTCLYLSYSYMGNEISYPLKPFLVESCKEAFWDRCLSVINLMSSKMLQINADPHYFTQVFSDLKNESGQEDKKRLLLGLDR
Description: as §1

JNK2α = JNK2α (Homo sapiens, UniProt P45984); experiment: Kinase counter-screen, Ki; format: biochemical; conditions: apparent Ki
JNK2α, sequence (P45984 whole entry): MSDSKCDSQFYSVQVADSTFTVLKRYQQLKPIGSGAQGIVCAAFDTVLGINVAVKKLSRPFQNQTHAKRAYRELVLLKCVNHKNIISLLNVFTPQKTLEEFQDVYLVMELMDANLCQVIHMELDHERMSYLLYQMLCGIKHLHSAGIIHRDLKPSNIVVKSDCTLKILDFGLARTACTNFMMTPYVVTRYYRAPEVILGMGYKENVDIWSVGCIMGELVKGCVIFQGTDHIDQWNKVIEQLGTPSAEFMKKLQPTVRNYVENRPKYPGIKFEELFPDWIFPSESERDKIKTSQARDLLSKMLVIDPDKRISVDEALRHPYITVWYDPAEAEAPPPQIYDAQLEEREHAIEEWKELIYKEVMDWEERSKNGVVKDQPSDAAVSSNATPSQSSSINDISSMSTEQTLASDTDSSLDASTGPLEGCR
Description: as §1

ROCKII = ROCKII (Homo sapiens, UniProt O75116); experiment: Kinase counter-screen, Ki; format: biochemical; conditions: apparent Ki
ROCKII, sequence (O75116 whole entry, species assumed): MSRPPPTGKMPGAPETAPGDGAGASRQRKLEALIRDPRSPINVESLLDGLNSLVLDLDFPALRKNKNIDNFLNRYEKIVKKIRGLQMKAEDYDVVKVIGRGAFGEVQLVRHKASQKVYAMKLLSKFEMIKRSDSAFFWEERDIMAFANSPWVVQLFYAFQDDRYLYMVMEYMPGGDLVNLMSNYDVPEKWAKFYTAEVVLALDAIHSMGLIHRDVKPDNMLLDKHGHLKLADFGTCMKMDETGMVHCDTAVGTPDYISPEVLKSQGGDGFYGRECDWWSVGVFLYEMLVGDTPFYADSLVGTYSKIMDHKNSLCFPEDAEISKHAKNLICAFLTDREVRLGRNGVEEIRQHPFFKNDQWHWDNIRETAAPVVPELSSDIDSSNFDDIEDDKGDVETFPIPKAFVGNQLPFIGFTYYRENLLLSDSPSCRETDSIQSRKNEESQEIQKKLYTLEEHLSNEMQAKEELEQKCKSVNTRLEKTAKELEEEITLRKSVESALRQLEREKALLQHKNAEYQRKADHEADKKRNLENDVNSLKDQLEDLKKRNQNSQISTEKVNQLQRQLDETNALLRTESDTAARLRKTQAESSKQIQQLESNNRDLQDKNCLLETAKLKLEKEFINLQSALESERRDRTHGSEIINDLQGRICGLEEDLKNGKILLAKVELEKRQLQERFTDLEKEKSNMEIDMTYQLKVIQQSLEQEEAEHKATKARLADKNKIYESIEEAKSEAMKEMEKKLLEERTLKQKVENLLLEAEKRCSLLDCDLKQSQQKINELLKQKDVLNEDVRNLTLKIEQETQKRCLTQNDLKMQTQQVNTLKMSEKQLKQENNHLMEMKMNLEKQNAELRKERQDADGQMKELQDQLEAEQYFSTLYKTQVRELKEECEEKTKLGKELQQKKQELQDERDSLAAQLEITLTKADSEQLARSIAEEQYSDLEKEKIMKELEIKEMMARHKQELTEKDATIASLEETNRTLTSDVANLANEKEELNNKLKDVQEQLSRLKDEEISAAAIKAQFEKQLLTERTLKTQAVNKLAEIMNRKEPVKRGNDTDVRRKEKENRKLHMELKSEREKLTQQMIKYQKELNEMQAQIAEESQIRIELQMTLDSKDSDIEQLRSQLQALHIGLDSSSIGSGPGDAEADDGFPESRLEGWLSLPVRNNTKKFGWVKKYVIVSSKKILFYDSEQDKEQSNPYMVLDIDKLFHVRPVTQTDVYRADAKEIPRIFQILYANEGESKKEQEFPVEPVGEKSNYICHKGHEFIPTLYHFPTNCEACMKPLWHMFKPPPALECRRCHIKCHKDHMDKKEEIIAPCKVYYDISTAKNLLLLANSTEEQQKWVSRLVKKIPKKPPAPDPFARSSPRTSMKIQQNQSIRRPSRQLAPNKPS
Description: as §1

RSK3 = RSK3 (Homo sapiens, UniProt Q15349); experiment: Kinase counter-screen, Ki; format: biochemical
RSK3, sequence (Q15349 whole entry, species assumed): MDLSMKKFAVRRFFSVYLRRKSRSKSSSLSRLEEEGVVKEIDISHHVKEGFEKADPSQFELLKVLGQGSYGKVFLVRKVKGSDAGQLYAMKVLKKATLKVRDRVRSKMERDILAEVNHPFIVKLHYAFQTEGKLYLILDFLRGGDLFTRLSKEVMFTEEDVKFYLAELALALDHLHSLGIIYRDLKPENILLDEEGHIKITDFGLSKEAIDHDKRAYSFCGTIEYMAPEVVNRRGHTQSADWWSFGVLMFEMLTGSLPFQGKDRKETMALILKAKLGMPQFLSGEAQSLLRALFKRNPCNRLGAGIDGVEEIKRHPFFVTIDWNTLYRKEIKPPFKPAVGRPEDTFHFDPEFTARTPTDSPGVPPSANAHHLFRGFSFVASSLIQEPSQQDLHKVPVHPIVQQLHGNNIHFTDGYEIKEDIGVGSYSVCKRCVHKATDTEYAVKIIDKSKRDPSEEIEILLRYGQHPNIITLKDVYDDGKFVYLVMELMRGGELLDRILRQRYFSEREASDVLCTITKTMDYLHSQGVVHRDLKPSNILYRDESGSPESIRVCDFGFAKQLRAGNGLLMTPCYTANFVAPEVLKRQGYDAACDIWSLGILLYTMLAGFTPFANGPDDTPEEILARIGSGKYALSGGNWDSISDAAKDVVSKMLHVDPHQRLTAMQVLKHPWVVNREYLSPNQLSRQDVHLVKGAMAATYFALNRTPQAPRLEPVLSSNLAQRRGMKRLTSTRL
Description: as §1

[1] = tested on: ERK1/2 phosphorylation in Colo205 xenografts; experiment: pERK1/2 in Colo205 xenograft tumors (ITIS mass spectrometry, IHC); format: in vivo, mice; conditions: single 100 mg/kg oral dose
Protocol: For measurement of ERK1/2 Isotope-Tagged Internal Standard (ITIS) Mass Spectrometry in Colo205 Xenografts, frozen tumors were lysed in 10 volumes of ice cold lysis buffer (10 mM TRIS-HCl, pH 8.0, 10 mM MgCl2, 1% (v/v) Triton X-100, Complete™ Protease Inhibitor Cocktail [Roche, cat. No. 1836170], Phosphatase Inhibitor Cocktail I [Sigma, cat. No. P-2850], Phosphatase Inhibitor Cocktail II [Sigma cat. No. 5726], and benzonase [Novagen cat. No. 70664]). Lysates were clarified by centrifugation (100,000×g for 60 minutes at 4° C.) and the supernatants adjusted to 2 mg/mL with lysis buffer. ERK1 was immunoprecipitated using agarose-coupled and pan-anti-ERK1 (Santa Cruz Biotechnology cat. No. sc-93ac) antibodies. […]
For ITIS analysis, digested samples were spiked with heavy-atom labeled peptide standards and fractional phosphorylation was quantified by coupled liquid chromatography-tandem mass spectrometry (MS). […]
For analysis of pERK IHC in Colo205 xenografts, xenograft tumors were processed overnight in 70% through 100% graded ethanols, cleared in two changes of xylene, infiltrated with paraffin, and embedded into paraffin blocks. […] A single section from each animal and dose group was probed with anti-phospho p42/p44 MAPK antibody (pERK [1:100], CST; Cat no. 9101; Lot no. 16), counterstained with hematoxylin, and then analyzed microscopically using a Zeiss Axioplan 2 microscope. […]

[2] = tested on: PMA-stimulated RSK1 phosphorylation; experiment: Ex vivo inhibition of PMA-stimulated RSK1 phosphorylation in human whole blood; format: cell-based
[3] = Phase I study: pharmacokinetic analysis; format: in vivo, human; conditions: for AUC(0-t) / Cmax: plasma
Protocol: Blood samples were collected prior to dosing, and then at 0.5 (±5 min), 1 (±5 min), 2 (±10 min), 4 (±10 min), 6 (±10 min), 8 (±10 min), and 12 (±2 hr) hours on Day 1 (Visit 2; baseline/initiation of treatment) and Day 15 (Visit 4; at steady state) after the morning dose. On Day 22, prior to dose administration, a final blood sample was collected for pharmacokinetic analyses. Urine samples were collected predose and at the 1- to 6-hour and 6- to 12-±2-hour intervals postdose on Days 1 and 15. […] Standard pharmacokinetic parameters were obtained using Phoenix WinNonlin (Pharsight) with a noncompartmental method. Relationship between dose and exposure was calculated using standard least-squares regression analysis.

advanced solid tumors = experiment: Phase I study: antitumor response (RECIST v1.1, 18F-FDG-PET); format: in vivo, human
Protocol: For measurement of antitumor response, tumor measurements based on physical examination occurred at baseline and on the first day of each treatment cycle. CT and other assessments were made every 2 to 3 cycles. Findings were assessed in accordance with RECIST v1.1: CR was defined as disappearance of all target lesions; PR was defined as a ≥30% decrease in the sum of the longest diameters of target lesions, taking baseline measurements as reference; stable disease was defined as being of neither sufficient shrinkage to qualify for PR nor sufficient increase to qualify for progressive disease, taking as reference the baseline measurement.

RKO colorectal cell line = experiment: Western blot of nuclear and cytoplasmic fractions; format: cell-based; conditions: versus DMSO
Protocol: For Western blot analysis, A375 cells were seeded onto 10 cm dishes in Dulbecco's Modified Eagle's Medium plus 10% (v/v) FBS. Cells were allowed to adhere overnight prior to the addition of test compound or vehicle. For experiments with RKO cells, these cells were seeded in 6-well plates or 10 cm dishes with McCoy's 5A+10% (v/v) FBS. Cells were then treated at the desired concentration and duration. Cells were harvested by trypsinization, pelleted, and snap frozen. Lysates were prepared with RIPA buffer supplemented with protease and phosphatase inhibitor cocktails (Roche), clarified by centrifugation at 11,000 rpm for 10 minutes, and quantitated by bicinchoninic acid assay. Samples were resolved by SDS-PAGE, blotted onto polyvinylidene difluoride membranes, and probed using antibodies (i.e., pRB [Ser780], cat. no. 9307; CCND1, cat. no. ab6152; BCL-xL, cat. no. 2762; PARP, cat. no. 9542; DUSP6, cat. no. 3058S) directed to the indicated targets.
In resting cells, ERK1/2 localizes to the cytoplasm, and once stimulated pERK1/2 migrates to target organelles, particularly the nucleus where transcriptional targets are activated (Wainstein et al. 2016). In DMSO-treated control cells, pERK1/2 is evident in both nuclear and cytoplasmic fractions, which is likely reflective of MAPK pathway activity due to the presence of BRAF^V600E in this cell line.

CDK1/cyclinB, sequence (P06493 whole entry, species assumed): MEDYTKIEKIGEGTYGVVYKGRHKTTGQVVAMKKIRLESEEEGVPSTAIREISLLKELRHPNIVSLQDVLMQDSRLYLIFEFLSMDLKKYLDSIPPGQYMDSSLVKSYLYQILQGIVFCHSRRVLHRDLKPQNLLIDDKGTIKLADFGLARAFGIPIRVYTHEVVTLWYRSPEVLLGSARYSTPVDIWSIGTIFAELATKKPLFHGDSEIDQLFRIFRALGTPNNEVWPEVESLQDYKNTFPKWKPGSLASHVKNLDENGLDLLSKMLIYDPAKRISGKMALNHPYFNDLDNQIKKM
CDK1/cyclinB, sequence (P14635 whole entry partner, species assumed): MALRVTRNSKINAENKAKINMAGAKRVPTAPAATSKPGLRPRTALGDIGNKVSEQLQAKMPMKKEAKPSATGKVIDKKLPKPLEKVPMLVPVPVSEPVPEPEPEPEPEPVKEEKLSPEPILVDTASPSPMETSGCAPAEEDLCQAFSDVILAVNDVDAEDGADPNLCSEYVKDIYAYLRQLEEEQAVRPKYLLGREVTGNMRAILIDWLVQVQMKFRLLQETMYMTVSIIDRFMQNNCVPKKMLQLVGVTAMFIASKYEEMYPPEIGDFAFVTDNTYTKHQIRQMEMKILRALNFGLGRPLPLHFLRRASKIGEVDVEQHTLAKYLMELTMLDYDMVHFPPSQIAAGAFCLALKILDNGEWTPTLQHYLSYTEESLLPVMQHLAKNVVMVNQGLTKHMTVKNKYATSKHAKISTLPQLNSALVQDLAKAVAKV

Question: Which Ki (CDK1/cyclinB) does the source give for `CC(C)Nc1cc(-c2c[nH]c(C(=O)N[C@H](CO)c3cccc(Cl)c3)c2)c(Cl)cn1` [BVD-523] here?
Answer: 70 nM

Question: What about the Ki (CDK5/p35) of the same molecule?
Answer: 90 nM

Question: And the Ki (JNK2α)?
Answer: 650 nM

Question: And the Ki (ROCKII)?
Answer: 270 nM

Question: What about the Ki (RSK3) of the same molecule?
Answer: 450 nM

Question: And the “time of maximal ERK1/2 phosphorylation post-dose” value [1]?
Answer: 8 h

Question: What about the “time of return of pERK1/2 to pre-dose levels” value [1] of the same molecule?
Answer: ≤ 24 hours

Question: What about the EC50 ([2]; Homo sapiens, human whole blood (HWB), read-out: EC50 based on the ex vivo whole blood assay) of the same molecule?
Answer: ~0.2 µg/mL (≈ 0.462 µM)

Question: And the inhibition at 10 µM ([2]; Homo sapiens, read-out: maximum inhibition of RSK phosphorylation)?
Answer: 75.8 ± 2.7%

Question: And the IC50 ([2]; Homo sapiens, whole blood from healthy volunteers, read-out: mean IC50, PMA-stimulated RSK phosphorylation)?
Answer: 461 ± 20 nM

Question: What about the “EC50 based on the ex vivo whole blood assay” value ([2]; human whole blood (HWB)) of the same molecule?
Answer: 200 ng/mL (≈ 0.462 µM)

Question: And the “urinary excretion within 12 hours postdose” value ([3]; first dose and steady state, all dose levels)?
Answer: < 0.2 % of the dose

Question: What about the CL renal ([3]; human, plasma and urine, oral, n≥3, read-out: mean renal clearance values) of the same molecule?
Answer: 0.248 to 0.5 mL/min

Question: And the AUC(0-t) ([3]; human, oral, 10 mg, 10 mg BID, Day 1, read-out: AUC0-12)?
Answer: 220 ng·h/mL

Question: What about the Cmax ([3]; human, oral, 10 mg, 10 mg BID, Day 1, read-out: Cmax) of the same molecule?
Answer: 48.2 ng/mL

Question: What about the AUC(0-t) ([3]; human, oral, 10 mg, 10 mg BID, Day 15, read-out: AUC0-12) of the same molecule?
Answer: 234 ng·h/mL

Question: And the Cmax ([3]; human, oral, 10 mg, 10 mg BID, Day 15, read-out: Cmax)?
Answer: 45.7 ng/mL

Question: And the AUC(0-t) ([3]; human, oral, 20 mg, 20 mg BID, Day 1, read-out: AUC0-12)?
Answer: 91.7 ng·h/mL

Question: What about the Cmax ([3]; human, oral, 20 mg, 20 mg BID, Day 1, read-out: Cmax) of the same molecule?
Answer: 14.9 ng/mL

Question: What about the AUC(0-t) ([3]; human, oral, 20 mg, 20 mg BID, Day 15, read-out: AUC0-12) of the same molecule?
Answer: 98.7 ng·h/mL

Question: What about the Cmax ([3]; human, oral, 20 mg, 20 mg BID, Day 15, read-out: Cmax) of the same molecule?
Answer: 15.8 ng/mL

Question: What about the AUC(0-t) ([3]; human, oral, 40 mg, 40 mg BID, Day 1, read-out: AUC0-12) of the same molecule?
Answer: 614 ng·h/mL

Question: And the Cmax ([3]; human, oral, 40 mg, 40 mg BID, Day 1, read-out: Cmax)?
Answer: 100 ng/mL

Question: And the AUC(0-t) ([3]; human, oral, 40 mg, 40 mg BID, Day 15, read-out: AUC0-12)?
Answer: 999 ng·h/mL

Question: And the Cmax ([3]; human, oral, 40 mg, 40 mg BID, Day 15, read-out: Cmax)?
Answer: 191 ng/mL

Question: What about the AUC(0-t) ([3]; human, oral, 150 mg, 150 mg BID, Day 1, read-out: AUC0-12) of the same molecule?
Answer: 817 ng·h/mL

Question: What about the Cmax ([3]; human, oral, 150 mg, 150 mg BID, Day 1, read-out: Cmax) of the same molecule?
Answer: 133 ng/mL

Question: And the AUC(0-t) ([3]; human, oral, 150 mg, 150 mg BID, Day 15, read-out: AUC0-12)?
Answer: 2770 ng·h/mL

Question: What about the Cmax ([3]; human, oral, 150 mg, 150 mg BID, Day 15, read-out: Cmax) of the same molecule?
Answer: 326 ng/mL

Question: And the AUC(0-t) ([3]; human, oral, 300 mg, 300 mg BID, Day 1, read-out: AUC0-12 ± SD)?
Answer: 4110 ± 1140 ng·h/mL

Question: What about the Cmax ([3]; human, oral, 300 mg, 300 mg BID, Day 1, read-out: Cmax ± SD) of the same molecule?
Answer: 765 ± 234 ng/mL

Question: And the AUC(0-t) ([3]; human, oral, 300 mg, 300 mg BID, Day 15, read-out: AUC0-12 ± SD)?
Answer: 4460 ± 2460 ng·h/mL

Question: And the Cmax ([3]; human, oral, 300 mg, 300 mg BID, Day 15, read-out: Cmax ± SD)?
Answer: 586 ± 257 ng/mL

Question: What about the AUC(0-t) ([3]; human, oral, 600 mg, 600 mg BID, Day 1, read-out: AUC0-12 ± SD) of the same molecule?
Answer: 2750 ± 1740 ng·h/mL

Question: What about the AUC(0-t) ([3]; human, oral, 600 mg, 600 mg BID, Day 15, read-out: AUC0-12 ± SD) of the same molecule?
Answer: 24400 ± 16200 ng·h/mL

Question: And the Cmax ([3]; human, oral, 600 mg, 600 mg BID, Day 15, read-out: Cmax ± SD)?
Answer: 2750 ± 170 ng/mL

Question: And the AUC(0-t) ([3]; human, oral, 750 mg, 750 mg BID, Day 1, read-out: AUC0-12 ± SD)?
Answer: 10700 ng·h/mL

Question: And the Cmax ([3]; human, oral, 750 mg, 750 mg BID, Day 1, read-out: Cmax ± SD)?
Answer: 1450 ± 539 ng/mL

Question: What about the AUC(0-t) ([3]; human, oral, 750 mg, 750 mg BID, Day 15, read-out: AUC0-12 ± SD) of the same molecule?
Answer: 23300 ng·h/mL

Question: What about the Cmax ([3]; human, oral, 750 mg, 750 mg BID, Day 15, read-out: Cmax ± SD) of the same molecule?
Answer: 2290 ng/mL

Question: And the AUC(0-t) ([3]; human, oral, 750 mg, Day 15, reduced from 750 mg to 450 mg/dose, read-out: AUC0-12, individual subject)?
Answer: 10700 ng·h/mL

Question: And the Cmax ([3]; human, oral, 750 mg, Day 15, reduced from 750 mg to 450 mg/dose, read-out: Cmax, individual subject)?
Answer: 1300 ng/mL

Question: And the AUC(0-t) ([3]; human, oral, 900 mg, 900 mg BID, Day 1, read-out: AUC0-12 ± SD)?
Answer: 10800 ng·h/mL

Question: And the Cmax ([3]; human, oral, 900 mg, 900 mg BID, Day 1, read-out: Cmax ± SD)?
Answer: 1430 ± 1010 ng/mL

Question: And the AUC(0-t) ([3]; human, oral, 900 mg, 900 mg BID, Day 15, read-out: AUC0-12 ± SD)?
Answer: 15900 ng·h/mL

Question: And the Cmax ([3]; human, oral, 900 mg, 900 mg BID, Day 15, read-out: Cmax ± SD)?
Answer: 1720 ± 328 ng/mL

Question: And the “dose-exposure relationship (Cmax and AUC)” value ([3]; up to 600 mg BID)?
Answer: linear and dose proportional

Question: And the “durable partial response, duration of dosing” value (advanced solid tumors; 600 mg BID, progressed on prior vemurafenib and dabrafenib/trametinib)?
Answer: > 300 days

Question: And the partial response (advanced solid tumors; 25 evaluable patients, all melanoma with BRAF^V600 mutations)?
Answer: 3 patients

Question: What about the “progressive disease at first evaluation” value (advanced solid tumors; in vivo) of the same molecule?
Answer: 4 patients

Question: And the stable disease (advanced solid tumors; in vivo)?
Answer: 18 patients

Question: And the “stable disease for more than 3 months (additional patients)” value (advanced solid tumors; in vivo)?
Answer: 6 patients

Question: What about the “stable disease for more than 6 months” value (advanced solid tumors; in vivo) of the same molecule?
Answer: 6 patients

Question: What about the “reduction in the sum of target lesions from baseline” value (advanced solid tumors; other partial responders) of the same molecule?
Answer: 47.0% and 33.6%

Question: What about the “reduction in the sum of target lesions from baseline” value (advanced solid tumors; partial responder at 450 mg BID) of the same molecule?
Answer: ~70%

Question: What about the “duration of partial response” value (advanced solid tumors; patient intolerant to other BRAF/MEK inhibitors, ongoing by data cutoff) of the same molecule?
Answer: ≥ 313 days

Question: And the “duration of partial response” value (advanced solid tumors; patient refractory to prior BRAF/MEK inhibitors, ongoing)?
Answer: ≥ 294 days

Question: With `O=C(Nc1ccc2[nH]nc(-c3ccncc3)c2c1)[C@@H]1CCN(CC(=O)N2CCN(c3ccc(-c4ncccn4)cc3)CC2)C1` [SCH772984] as the molecule, how does the “pERK1/2 in nuclear and cytoplasmic fractions” value (RKO colorectal cell line) read?
Answer: inhibited phosphorylation of ERK1/2 and RSK

Reference: patent US20210038587A1, “METHODS AND COMPOSITIONS FOR TREATING NON-ERK MAPK PATHWAY INHIBITOR-RESISTANT CANCERS” (BIOMED VALLEY DISCOVERIES, INC., priority 2013, published 2021)
